Measurements taken from patent US7560474B2, “Derivatives of pyridilethanol (phenylethyl) amines as inhibitors of cholesterol biosynthesis, process for their preparation and pharmaceutical compositions containing them” (Lek Pharmaceuticals d.d., priority 2002, dated 2009).
“Also recorded” adds a separate entry of the source. Counter-ions that a name gives are not always drawn.

Columns and labels:
[1] = tested on: cholesterol biosynthesis in immortal human hepatocyte cell line HepG2; experiment: Metabolic labeling of immortal human hepatocytes (HepG2) with [3H] acetate, HPLC sterol analysis; assay type: cell-based; conditions: 100 μM inhibitor, HepG2 cells, [3H] acetate labeling, radiodetector HPLC; for quantity of radiolabelled cholesterol synthesized (inhibition of cholesterol biosynthesis): FIG. 3
Description: In accordance with the invention goal, the effect of the novel derivatives of pyridylethanol (phenylethyl) amine as ligands of sigma receptors on inhibition of cholesterol biosynthesis was assessed. An ex vivo method of metabolic labeling of immortal human hepatocytes was employed. The radioactively labelled early precursor of cholesterol [^3H] acetate was added to cells with or without addition of sigma ligands. Two independent experiments of metabolic labeling and sterol analysis were performed. […] The inhibitory effect on cholesterol biosynthesis of our novel ligands of sigma receptors BK-31.2 HBr, BK-33.2HBr, BK-35.2HBr and BK-38.2HBr), prepared according to examples 1 to 4, was evaluated. An ex vivo method of metabolic labeling of immortal human hepatocytes was applied. The radiolabel led precursor of cholesterol biosynthesis [^3H] acetate was added to the cells with or without the addition of sigma ligands. Finally, two independent experiments of metabolic labeling and sterol analysis were performed for each compound. The immortal human hepatocyte cell line HepG2 was split to the 75 cm^2 flasks in the ratio 1:2, two flasks for each condition. The cells were cultured in the DMEM culture ([…] 0.0626 […] 0.042 […]-thryptophan 0.016 g/l, L-[…]Na.2H2O 0.10379 […], choline chloride 0.004 g/l, folic acid 0.004 g/l, myo-inositol 0.0072 g/l, niacinamide 0.004 g/l, D-pantothenic acid 0.004 g/l, pyridoxal.HCl 0.004 g/l, riboflavin 0.0004 g/l, thiamine.HCl 0.004 g/l, calcium chloride.2H2O 0.265 g/l, ferric nitrate.9H2O 0.0001 g/l, magnesium sulfate [anhydride] 0.09767 g/l, potassium chloride 0.4 g/l, sodium chloride 6.4 g/l, monobasic sodium phosphate [anhydride] 0.109 g/l, glucose 4.5 g/l and phenol red, Na 0.0159 g/l) with 5% bovine serum and 1% L-glutamine. After 24 hours a medium with 100 μM ligands of sigma receptors (BK-31.2HBr, BK-33.2HBr, BK-35.2HBr and BK-38.2HBr) was added to the cells. The known inhibitors of cholesterol biosynthesis, 100 μM lovastatin or pravastatin, both the inhibitors of HMG-CoA reductase, and 100 μM fluconazole that inhibits enzymes of the P450 family to which lanosterol 14α-[…] (CYP51) also belongs, were used as positive controls. The cells grown in normal media without the addition of inhibitors served as negative control. The medium was exchanged after 24 hours. After 48 hours, 40 μCi [^3H] acetate was added per 1 ml of the medium (400 μCi per flask). The medium was aspirated after 24 hours, and the cells were tryptinized with 2 ml of trypsine. The cells were collected in 4 ml of the medium, centrifuged, and the cell pellet resuspended in distilled water (1 ml per flask). The cells were homogenized by freeze-thawing. Sterols were extracted from the homogenate. Protein concentration was determined in the homogenate with the Bio-rad reagent according to the recommended protocol of the producer. The homogenate was transferred into glass vials with an inert cover. 3 ml of the extraction solution (75% n-heptane:25% isopropanol (vol/vol)) was added. The closed vials were shaken vigorously on a shaker in the dark room for 2 hours. […] Until analysis, the samples were stored in the HPLC-grade solvent in dark and cold. The dried extracts were dissolved in 250 μl n-heptane. 100 μl aliquots were injected into the normal phase column (ChromSpher Si, 150 mm×3 mm, particle size 5 μm) with the mobile phase 99.5% n-heptane:0.5% isopropanol at flow rate 1 ml/min and room temperature. […] For determination of sterol after metabolic labeling, a radiodetector with the flow-through cell was used. […] G. Byskov, Rikhospitalitet, University of Copenhagen). The results were normalized according to the quantity of internal standard ergosterol and the concentration of proteins in the homogenate. The results represent the average value of two measurements with appropriate standard deviation.

## CCCN(CCc1ccccc1)CC(O)c1cccnc1 (stereo not drawn) (as salt: hydrobromid) [BK-31.2HBr, 1-(3-pyridyl)-2-(N-(2-phenylethyl)-N-propylamino)ethanol dihydrobromide]
other
  melting point: 113 to 120 °C

## CCCN(CCc1ccccc1)CC(O)c1cccnc1 (stereo not drawn) [BK-31.2HBr, 1-(3-pyridyl)-2-(N-(2-phenylethyl)-N-propylamino)ethanol dihydrobromide]
[1]
  quantity of radiolabelled cholesterol synthesized (inhibition of cholesterol biosynthesis): significantly lowered amounts of cholesterol

## CN(CCc1ccc(Cl)c(Cl)c1)CC(O)c1cccnc1 (stereo not drawn) [BK-33.2HBr, 1-(3-pyridyl)-2-(N-(2-(3,4-dichlorophenyl)ethyl)-N-methylamino)ethanol dihydrobromide]
[1]
  quantity of radiolabelled cholesterol synthesized (inhibition of cholesterol biosynthesis): significantly lowered amounts of cholesterol

## CCCN(CCc1ccc(Cl)c(Cl)c1)CC(O)c1cccnc1 (stereo not drawn) [BK-35.2HBr, 1-(3-pyridyl)-2-(N-(2-(3,4-dichlorophenyl)ethyl)-N-propylamino)ethanol dihydrobromide]
[1]; dihydrobromide
  quantity of radiolabelled cholesterol synthesized (inhibition of cholesterol biosynthesis): most pronounced; also recorded: cholesterol quantity is diminished; also recorded: significantly lowered amounts of cholesterol; also recorded: greatest lowering of cholesterol
[1]; listed as BK 35.2HBr, dihydrobromide
  quantity of radiolabelled cholesterol synthesized (inhibition of cholesterol biosynthesis): highest potential to inhibit cholesterol biosynthesis
[1]; FIG. 4, dihydrobromide
  amount of intermediate sterols representing lanosterol or T-MAS (accumulation of early postsqualene intermediates): ten-fold increase; also recorded: increased

## CN(CCc1ccc(Cl)c(Cl)c1)CC(O)c1ccncc1 (stereo not drawn) [BK-38.2HBr, 1-(4-pyridyl)-2-(N-(2-(3,4-dichlorophenyl)ethyl)-N-methylamino)ethanol dihydrobromide]
[1]
  quantity of radiolabelled cholesterol synthesized (inhibition of cholesterol biosynthesis): significantly lowered amounts of cholesterol

## OC(Cn1cncn1)(Cn1cncn1)c1ccc(F)cc1F [Fluconazole, fluconazole, reference compound]
[1]
  quantity of radiolabelled cholesterol synthesized (inhibition of cholesterol biosynthesis): weaker inhibitor of cholesterol biosynthesis

## CC[C@H](C)C(=O)O[C@H]1C[C@@H](C)C=C2C=C[C@H](C)[C@H](CC[C@@H]3C[C@@H](O)CC(=O)O3)[C@H]21 [Lovastatin, lovastatin, reference compound]
[1]
  quantity of radiolabelled cholesterol synthesized (inhibition of cholesterol biosynthesis): completely blocked the biosynthesis
